Test results as given in BigSolDB 2.1.

NCC1(CC(=O)O)CCCCC1.O
in water
Details	solubility (mole fraction)
283.15 K	0.0093
288.15 K	0.0106
293.15 K	0.0116
298.15 K	0.0124
303.15 K	0.0137
308.15 K	0.0152
313.15 K	0.0168
318.15 K	0.0189
323.15 K	0.0222

NCC1(CC(=O)O)CCCCC1
solubility (mole fraction)
Details	283.15 K	288.15 K	293.15 K	298.15 K	303.15 K	308.15 K	313.15 K	318.15 K	323.15 K
in ethanol	0.00134	0.00153	0.0017	0.00187	0.00224	0.00243	0.00267	0.003	0.00329
in methanol	0.00718	0.00795	0.00878	0.00943	0.0107	0.0117	0.0127	0.014	0.016
